Test results from patent US4980349A, “Sulphonamides derived from diarylmethanes, the processes for preparing them and pharmaceutical compositions containing them” (SANOFI, priority 1986, dated 1990).
Read-outs that look alike come from different tables or passages of the source.

Tests used:
[1] = tested on: rat hind foot kaolin-induced arthritis; assay: Kaolin-induced arthritis test, second experiment, chronic phase (weight of the foot at the 12th hour); assay type: in vivo; conditions: po, 12 h, Table IXb; for change in vivo at 25 mg/kg / change in vivo at 50 mg/kg / change in vivo at 100 mg/kg: 12th hour, read-out: percentage significant decrease in the weight of the treated foot; for ED50: foot weight, read-out: 50% active dose
Method: The […] of 0.05 ml of a sterile 10% strength suspension of kaolin into the metatarsal flexor sheath of the hind foot of a rat initially induces an oedematous reaction. An inflammatory arthritis then forms.
The test products are administered orally (stomach tube) one hour before the injection of the kaolin.
In a second experiment, a more elaborate study was performed in order to ascertain the effect of the products, on the one hand on the acute phase of the inflammatory reaction (measured by the volume of the foot at the 8th hour), and on the other hand on the chronic phase (activity measured by the weight of the foot at the 12th hour).
As in the previous experiment, ketoprofen was used as the comparative product: […]

[2] = tested on: pain threshold of brewer's yeast inflamed rat hind foot; assay: Randall and Sellitto's test (analgesic activity); assay type: in vivo; conditions: for change in vivo at 25 mg/kg: 25 mg/kg oral; for change in vivo at 25 mg/kg / change in vivo at 50 mg/kg / change in vivo at 100 mg/kg: read-out: percentage increase in the mean pain threshold; for change in vivo at 50 mg/kg: 50 mg/kg oral; for change in vivo at 100 mg/kg: 100 mg/kg oral; for ED50: po, analgesia, read-out: 50% active dose
In short: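 Rats had 0.1 ml 20% brewer's yeast suspension injected under the hind-foot plantar aponeurosis; compounds dosed orally by stomach tube 1 h before yeast. Pain threshold was the pressure eliciting foot withdrawal, read at the 4–6 h plateau; result is % increase in mean threshold versus untreated controls, 10 rats per group.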

[3] = tested on: biosynthesis of leukotrienes B4 (LTB4), human polymorphonuclear leukocytes; assay: Biosynthesis of LTB4, isomers and oxidized metabolites in human polymorphonuclear leukocytes; assay type: cell-based; conditions: Leukocyte
In short: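 Human polymorphonuclear leukocytes (5×10^6, used within 6 h of blood draw) preincubated 10 min at 37° C. with test product at 40 μM in DMSO, stimulated with 10 μM ionophore A 23187 in PBS pH 7.4. LTB4, its isomers and oxidized metabolites quantified by HPLC at 269 nm against PGB2 internal standard, as % inhibition or % increase.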

[4] = tested on: biosynthesis of leukotrienes C4 (LTC4), human polymorphonuclear leukocytes; assay: LTC4 production in human polymorphonuclear leukocytes; assay type: cell-based; conditions: Leukocyte, 0.25 h, ionophore A 23187 5 μM, 15 min, 37° C., read-out: IC50, inhibition of the production of LTC4
Method: Human polymorphonuclear Leukocytes are stimulated by calcium ionophore A 23187 (Calbiochem, 5 μM), in the presence or absence of the test products.
After 15 minutes' incubation at 37° C., assay of the leukotrienes C4 (LTC4) is performed radioimmunologically.
The results are expressed as IC50, the concentration producing 50% inhibition of the production of LTC4, by comparison with a control suspension which has not been incubated in the presence of the test products.

[5] = tested on: 5-lipoxygenase; assay: Production of LTB4 and 5-HETE by human leukocytes incubated with arachidonic acid; assay type: cell-based; conditions: ionophore A 23187 5 μM, arachidonic acid 10 μg/ml
Method: Human polymorphonuclear leukocytes suspended with arachidonic acid and stimulated by calcium ionophore produce leukotrienes B4 (LTB4).
The test consists in incubating fresh human leukocytes with arachidonic acid at a dose of 10 μg/ml to which a tracer dose of tritium-labelled arachidonic acid has been added. The leukocytes are stimulated with calcium ionophore A 23187 (Calbiochem, 5 μM) and the amount of 5-hydroxyeicosatetraenoic acid (5-HETE) and LTB4 produced is then assayed by HPLC.
5-HETE is the metabolite produced from arachidonic acid by 5-lipoxygenase, and from which LTB4 is produced by the action of an isomerase.
The results are expressed as an integration of the surface of the peak obtained in HPLC by comparison with that obtained with control leukocytes which have not been incubated with the test products.
The results in brackets are expressed as a percentage inhibition of the production of 5-HETE and LTB4.

[6] = Oral LD50 in rats; conditions: rat, in vivo, male Wistar rats, 200-400 g, 14 days observation, read-out: approximate oral LD50
Method: (§1) The compounds were suspended in a 3% strength solution of gum arabic so as to supply, in a volume of 2 ml for the rats, the equivalent of 50, 100, 200, 400 and 800 mg/kg, and, in a volume of 1 ml for the mice, 100, 200, 400, 800 and 1,600 mg/kg and, for 1573 and 1579, 3,200 mg/kg.
(§2) Gavage was performed by means of a metal tube, on batches of 5 animals for each series.
(§3) The animals were observed daily for 14 days.

[7] = Oral LD50 in mice; conditions: mouse, in vivo, female Swiss CF mice, 20 g, 14 days observation, read-out: approximate oral LD50
Method: as §1, §2, §3

[8] = second experiment, read-out: Percentage inhibition of LTB4 formation
[9] = first experiment, read-out: Isomers of LTB4: percentage inhibition (+ : percentage increase in the production)
[10] = first experiment, read-out: LTB4: percentage inhibition (+ : percentage increase in the production)
[11] = first experiment, read-out: Oxidized metabolites of LTB4: percentage inhibition (+ : percentage increase in the production)

Row | IC50 [4] [µM] | Structure (SMILES) | change in vivo at 25 mg/kg [1] [%] | change in vivo at 50 mg/kg [1] [%] | change in vivo at 100 mg/kg [1] [%] | ED50 [1] [mg/kg] | change in vivo at 25 mg/kg ([2]; second experiment, Table XIIa) [%] | change in vivo at 50 mg/kg ([2]; second experiment, Table XIIa) [%] | change in vivo at 100 mg/kg ([2]; second experiment, Table XIIa) [%] | ED50 ([2]; second experiment, Table XIIa) [mg/kg] | inhibition at 40 µM [3, 8] [%] | 5-HETE, integration of the surface of the HPLC peak [5] | inhibition at 40 µM [3, 9] [%] | inhibition at 40 µM [3, 10] [%] | inhibition at 40 µM [3, 11] [%] | LD50 at 336 h [7] [mg/kg] | other results
1 | 1.7 | O=C(O)CCCCCCCCCCNS(=O)(=O)c1ccc(Cl)cc1C(O)c1ccccc1Cl (centres unmarked) [Compound 1796] | -50 ± 5 | -52 ± 5 | -58 ± 5 | 25 | 50 | 55 | 58 | 25 | 100 | 127 | – | – | – | – | LTB4, integration of the surface of the HPLC peak [5]: 152
2 | – | O=C(O)CCCCCCCCCCNS(=O)(=O)c1ccc(Cl)cc1C(=O)c1ccccc1 [Compound 1572, 11-(2-benzoyl-4-chlorobenzenesulphonamido)undecanoic acid] | – | – | – | – | – | – | – | – | – | – | 100 | 84 | 90 | > 1600 | change in vivo at 25 mg/kg ([2]; first experiment, Table XII): 18%; change in vivo at 50 mg/kg ([2]; first experiment, Table XII): 30%; change in vivo at 100 mg/kg ([2]; first experiment, Table XII): 55%; LD50 at 336 h [6]: > 800 mg/kg
3 | 1 | O=C(O)CCCCCCCCCCNS(=O)(=O)c1ccc(Cl)cc1Cc1ccccc1Cl [Compound 1797] | -50 ± 5 | -58 ± 5 | -60 ± 5 | 25 | 50 | 55 | 58 | – | 100 | – | – | – | – | – | –
4 | 3 | O=C(O)CCCCCCCCCCCNS(=O)(=O)c1ccc(Cl)c(C(=O)c2ccccc2)c1 [Compound 1736, 12-(3-benzoyl-4-chlorobenzenesulphonamido)dodecanoic acid] | -45 ± 5 | -55 ± 5 | -58 ± 5 | 50 | 52 | 58 | 60 | 25 | 100 | 384 | – | – | – | – | percentage inhibition of the production of 5-HETE (in brackets) [5]: 89.6%; percentage inhibition of the production of LTB4 (in brackets) [5]: 100%

Row | Structure (SMILES) | IC50 [4] [µM] | change in vivo at 25 mg/kg [1] [%] | change in vivo at 50 mg/kg [1] [%] | change in vivo at 100 mg/kg [1] [%] | ED50 [1] [mg/kg] | change in vivo at 25 mg/kg ([2]; second experiment, Table XIIa) [%] | change in vivo at 50 mg/kg ([2]; second experiment, Table XIIa) [%] | change in vivo at 100 mg/kg ([2]; second experiment, Table XIIa) [%] | ED50 ([2]; second experiment, Table XIIa) [mg/kg] | inhibition at 40 µM [3, 8] [%] | 5-HETE, integration of the surface of the HPLC peak [5] | inhibition at 40 µM [3, 9] [%] | inhibition at 40 µM [3, 10] [%] | inhibition at 40 µM [3, 11] [%] | LD50 at 336 h [7] [mg/kg] | other results
5 | O=C(O)CCCCCCCCCCNS(=O)(=O)c1ccc(Cl)cc1C(=O)c1ccccc1Cl [Compound 1574, 11-[2-(2-chlorobenzoyl)-4-chlorobenzenesulphonamido]undecanoic acid] | 3 | -58 ± 5 | -60 ± 5 | -60 ± 5 | 25 | 45 | 50 | 50 | 50 | 95 | – | 100 | 95 | 100 | > 1600 | –
